{"source": "patent US20220323406A1", "about": "“METHODS AND COMPOSITIONS FOR DIFFERENTIATING STEM CELLS” (Massachusetts Institute of Technology, priority 2019, published 2022)", "key": {"[1]": {"test_system": "ENR+CD organoids (ISC to Paneth cell differentiation)", "assay": "Primary screen: CCh-stimulated lysozyme secretion LYZ.S, 2.5-D 384-well ENR+CD organoid differentiation", "assay_type": "cell-based, mouse", "conditions": "primary screen", "text": "(§1) High-throughput screening."}, "[2]": {"test_system": "ENR+CD organoids (ISC to Paneth cell differentiation)", "assay": "Primary screen: basal (non-stimulated) lysozyme secretion LYZ.NS, 2.5-D 384-well ENR+CD organoid differentiation", "assay_type": "cell-based, mouse", "conditions": "primary screen; for Z.LYZ.NS: standard z score", "text": "as §1"}, "ENR+CD organoids": {"test_system": "ENR+CD organoids", "assay": "Primary screen: ATP (CellTiter-Glo 3D, CTG) cell number/viability, 2.5-D 384-well ENR+CD organoids", "conditions": "primary screen; for Z.CTG: standard z score"}}, "note": "Structures can show the parent of a compound that is named as a salt.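 Wherever Dose.FC.CTG is given: compounds given at plating and again on day 3 over a 6-day differentiation from ENR+CV stem-cell-enriched precursors, ATP measured on day 6, plate median as control.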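 Wherever Z.CTG is given: compounds given at plating and again on day 3 over a 6-day differentiation from ENR+CV stem-cell-enriched precursors, ATP measured on day 6, plate median as control.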", "data": [{"smiles": "CCCCN1CCCCC1C(=O)Nc1c(C)cccc1C", "note": "(stereo not shown) [Bupivacaine HCl]", "values": [{"measurement": "Dose.FC.LYZ.S", "setting": "[1]; dose 0.08 uM", "value": 0.082, "unit": "log2 fold change"}, {"measurement": "Dose.FC.LYZ.S", "setting": "[1]; dose 0.40 uM", "value": "−0.169", "unit": "log2 fold change"}, {"measurement": "Dose.FC.LYZ.S", "setting": "[1]; dose 2.00 uM", "value": "−0.210", "unit": "log2 fold change"}, {"measurement": "Dose.FC.LYZ.S", "setting": "[1]; dose 10.00 uM", "value": "−0.295", "unit": "log2 fold change"}, {"measurement": "Dose.FC.LYZ.NS", "setting": "[2]; dose 0.08 uM", "value": 0.002, "unit": "log2 fold change"}, {"measurement": "Z.LYZ.NS (standard z score)", "setting": "[2]; dose 0.08 uM", "value": 0.016}, {"measurement": "Dose.FC.LYZ.NS", "setting": "[2]; dose 0.40 uM", "value": "−0.100", "unit": "log2 fold change"}, {"measurement": "Dose.FC.LYZ.NS", "setting": "[2]; dose 2.00 uM", "value": "−0.137", "unit": "log2 fold change"}, {"measurement": "Dose.FC.LYZ.NS", "setting": "[2]; dose 10.00 uM", "value": "−0.195", "unit": "log2 fold change"}, {"measurement": "Z.LYZ.NS", "setting": "[2]; dose 0.40 uM", "value": "−0.871"}, {"measurement": "Z.LYZ.NS", "setting": "[2]; dose 2.00 uM", "value": "−1.196"}, {"measurement": "Z.LYZ.NS", "setting": "[2]; dose 10.00 uM", "value": "−1.700"}, {"measurement": "Dose.FC.CTG", "setting": "ENR+CD organoids; dose 0.08 uM", "value": "−0.003", "unit": "log2 fold change"}, {"measurement": "Dose.FC.CTG", "setting": "ENR+CD organoids; dose 0.40 uM", "value": "−0.217", "unit": "log2 fold change"}, {"measurement": "Dose.FC.CTG", "setting": "ENR+CD organoids; dose 2.00 uM", "value": "−0.300", "unit": "log2 fold change"}, {"measurement": "Dose.FC.CTG", "setting": "ENR+CD organoids; dose 10.00 uM", "value": "−0.364", "unit": "log2 fold change"}]}, {"smiles": "CC(C)C[C@H](NC(=O)[C@@H](NC(=O)c1cccc(-c2ccccc2)n1)[C@@H](C)O)B(O)O", "note": "[CEP-18770 (Delanzomib)]", "values": [{"measurement": "Dose.FC.LYZ.S", "setting": "[1]; dose 0.08 uM", "value": "−0.179", "unit": "log2 fold change"}, {"measurement": "Dose.FC.LYZ.S", "setting": "[1]; dose 0.40 uM", "value": "−0.159", "unit": "log2 fold change"}, {"measurement": "Dose.FC.LYZ.S", "setting": "[1]; dose 2.00 uM", "value": "−0.180", "unit": "log2 fold change"}, {"measurement": "Dose.FC.LYZ.S", "setting": "[1]; dose 10.00 uM", "value": "−0.149", "unit": "log2 fold change"}, {"measurement": "Dose.FC.LYZ.NS", "setting": "[2]; dose 0.08 uM", "value": "−0.108", "unit": "log2 fold change"}, {"measurement": "Dose.FC.LYZ.NS", "setting": "[2]; dose 0.40 uM", "value": "−0.076", "unit": "log2 fold change"}, {"measurement": "Dose.FC.LYZ.NS", "setting": "[2]; dose 2.00 uM", "value": "−0.063", "unit": "log2 fold change"}, {"measurement": "Dose.FC.LYZ.NS", "setting": "[2]; dose 10.00 uM", "value": "−0.035", "unit": "log2 fold change"}, {"measurement": "Z.LYZ.NS", "setting": "[2]; dose 0.08 uM", "value": "−0.937"}, {"measurement": "Z.LYZ.NS", "setting": "[2]; dose 0.40 uM", "value": "−0.664"}, {"measurement": "Z.LYZ.NS", "setting": "[2]; dose 2.00 uM", "value": "−0.546"}, {"measurement": "Z.LYZ.NS", "setting": "[2]; dose 10.00 uM", "value": "−0.308"}, {"measurement": "Dose.FC.CTG", "setting": "ENR+CD organoids; dose 0.08 uM", "value": "−0.953", "unit": "log2 fold change"}, {"measurement": "Dose.FC.CTG", "setting": "ENR+CD organoids; dose 0.40 uM", "value": "−1.642", "unit": "log2 fold change"}, {"measurement": "Dose.FC.CTG", "setting": "ENR+CD organoids; dose 2.00 uM", "value": "−0.990", "unit": "log2 fold change"}, {"measurement": "Dose.FC.CTG", "setting": "ENR+CD organoids; dose 10.00 uM", "value": "−1.148", "unit": "log2 fold change"}, {"measurement": "Z.CTG", "setting": "ENR+CD organoids; dose 0.08 uM", "value": "−2.276"}, {"measurement": "Z.CTG", "setting": "ENR+CD organoids; dose 0.40 uM", "value": "−3.923"}, {"measurement": "Z.CTG", "setting": "ENR+CD organoids; dose 2.00 uM", "value": "−2.364"}, {"measurement": "Z.CTG", "setting": "ENR+CD organoids; dose 10.00 uM", "value": "−2.742"}]}, {"smiles": "O=C(NC(NC(=S)Nc1ccc(F)c([N+](=O)[O-])c1)C(Cl)(Cl)Cl)C(c1ccccc1)c1ccccc1", "note": "(stereo not shown) [CGK733]", "values": [{"measurement": "Dose.FC.LYZ.S", "setting": "[1]; dose 0.08 uM", "value": 0.008, "unit": "log2 fold change"}, {"measurement": "Dose.FC.LYZ.S", "setting": "[1]; dose 0.40 uM", "value": "−0.018", "unit": "log2 fold change"}, {"measurement": "Dose.FC.LYZ.S", "setting": "[1]; dose 2.00 uM", "value": "−0.125", "unit": "log2 fold change"}, {"measurement": "Dose.FC.LYZ.S", "setting": "[1]; dose 10.00 uM", "value": "−0.230", "unit": "log2 fold change"}, {"measurement": "Dose.FC.LYZ.NS", "setting": "[2]; dose 0.08 uM", "value": 0.099, "unit": "log2 fold change"}, {"measurement": "Dose.FC.LYZ.NS", "setting": "[2]; dose 0.40 uM", "value": "−0.026", "unit": "log2 fold change"}, {"measurement": "Dose.FC.LYZ.NS", "setting": "[2]; dose 2.00 uM", "value": "−0.099", "unit": "log2 fold change"}, {"measurement": "Dose.FC.LYZ.NS", "setting": "[2]; dose 10.00 uM", "value": "−0.122", "unit": "log2 fold change"}, {"measurement": "Z.LYZ.NS", "setting": "[2]; dose 0.08 uM", "value": 0.863}, {"measurement": "Z.LYZ.NS", "setting": "[2]; dose 0.40 uM", "value": "−0.222"}, {"measurement": "Z.LYZ.NS", "setting": "[2]; dose 2.00 uM", "value": "−0.865"}, {"measurement": "Z.LYZ.NS", "setting": "[2]; dose 10.00 uM", "value": "−1.063"}, {"measurement": "Dose.FC.CTG", "setting": "ENR+CD organoids; dose 0.08 uM", "value": "−0.362", "unit": "log2 fold change"}, {"measurement": "Dose.FC.CTG", "setting": "ENR+CD organoids; dose 0.40 uM", "value": "−0.093", "unit": "log2 fold change"}, {"measurement": "Dose.FC.CTG", "setting": "ENR+CD organoids; dose 2.00 uM", "value": "−0.244", "unit": "log2 fold change"}, {"measurement": "Dose.FC.CTG", "setting": "ENR+CD organoids; dose 10.00 uM", "value": "−0.478", "unit": "log2 fold change"}, {"measurement": "Z.CTG", "setting": "ENR+CD organoids; dose 0.08 uM", "value": "−0.864"}, {"measurement": "Z.CTG", "setting": "ENR+CD organoids; dose 0.40 uM", "value": "−0.221"}, {"measurement": "Z.CTG", "setting": "ENR+CD organoids; dose 2.00 uM", "value": "−0.582"}, {"measurement": "Z.CTG", "setting": "ENR+CD organoids; dose 10.00 uM", "value": "−1.143"}]}, {"smiles": "Nc1ncnc2n[nH]c(Nc3ccc(F)cc3)c12", "note": "[CGP57380]", "values": [{"measurement": "Dose.FC.LYZ.S", "setting": "[1]; dose 0.08 uM", "value": 0.096, "unit": "log2 fold change"}, {"measurement": "Dose.FC.LYZ.S", "setting": "[1]; dose 0.40 uM", "value": 0.054, "unit": "log2 fold change"}, {"measurement": "Dose.FC.LYZ.S", "setting": "[1]; dose 2.00 uM", "value": "−0.095", "unit": "log2 fold change"}, {"measurement": "Dose.FC.LYZ.S", "setting": "[1]; dose 10.00 uM", "value": "−0.088", "unit": "log2 fold change"}, {"measurement": "Dose.FC.LYZ.NS", "setting": "[2]; dose 0.08 uM", "value": 0.218, "unit": "log2 fold change"}, {"measurement": "Dose.FC.LYZ.NS", "setting": "[2]; dose 0.40 uM", "value": "−0.041", "unit": "log2 fold change"}, {"measurement": "Dose.FC.LYZ.NS", "setting": "[2]; dose 2.00 uM", "value": "−0.055", "unit": "log2 fold change"}, {"measurement": "Dose.FC.LYZ.NS", "setting": "[2]; dose 10.00 uM", "value": "−0.037", "unit": "log2 fold change"}, {"measurement": "Z.LYZ.NS", "setting": "[2]; dose 0.08 uM", "value": 1.900}, {"measurement": "Z.LYZ.NS", "setting": "[2]; dose 0.40 uM", "value": "−0.354"}, {"measurement": "Z.LYZ.NS", "setting": "[2]; dose 2.00 uM", "value": "−0.477"}, {"measurement": "Z.LYZ.NS", "setting": "[2]; dose 10.00 uM", "value": "−0.321"}, {"measurement": "Dose.FC.CTG", "setting": "ENR+CD organoids; dose 0.08 uM", "value": 0.108, "unit": "log2 fold change"}, {"measurement": "Dose.FC.CTG", "setting": "ENR+CD organoids; dose 0.40 uM", "value": "−0.293", "unit": "log2 fold change"}, {"measurement": "Dose.FC.CTG", "setting": "ENR+CD organoids; dose 2.00 uM", "value": "−0.460", "unit": "log2 fold change"}, {"measurement": "Dose.FC.CTG", "setting": "ENR+CD organoids; dose 10.00 uM", "value": 0.055, "unit": "log2 fold change"}, {"measurement": "Z.CTG", "setting": "ENR+CD organoids; dose 0.08 uM", "value": 0.258}, {"measurement": "Z.CTG", "setting": "ENR+CD organoids; dose 0.40 uM", "value": "−0.700"}, {"measurement": "Z.CTG", "setting": "ENR+CD organoids; dose 2.00 uM", "value": "−1.098"}, {"measurement": "Z.CTG", "setting": "ENR+CD organoids; dose 10.00 uM", "value": 0.132}]}]}
